Data reported in the NIST ThermoML archive (doi:10.1016/j.fluid.2005.11.020).
Values joined by “and” are separate entries in the source; they are usually repeats but may differ in a detail not shown here. Equal values may be shown once. ± gives the expanded uncertainty stated by the source.

Settings: Liquid; for mass density: 293.2 K, 101.33 kPa, Vibrating tube method; for vapor or sublimation pressure: Ebulliometric method (Recirculating still)

| vapor or sublimation pressure (357.5 K) [kPa] | vapor or sublimation pressure (371.3 K) | vapor or sublimation pressure (371.4 K) [kPa] | SMILES | mass density [kg/m3] | vapor or sublimation pressure (428.8 K) [kPa] | vapor or sublimation pressure (404.6 K) [kPa] |
| --- | --- | --- | --- | --- | --- | --- |
| – | – | – | Brc1ccccc1 [bromobenzene] | 1495.28 ± 0.48 | 100.91 ± 1 | – |
| – | – | – | Clc1ccccc1 [chlorobenzene] | 1106.07 ± 0.3 | – | 100.82 ± 1 |
| 100.55 ± 1 | – | – | Fc1ccccc1 [fluorobenzene] | 1022.27 ± 0.27 | – | – |
| – | 100.91 ± 1 kPa and 100.6 ± 1 kPa | 100.95 ± 1 | CCCCCCC [heptane] | 683.53 ± 0.27 | – | – |
